Source: patent US20100317581A1, “Ipamorelin Diacetate Injection and Infusion Solutions” (Helsinn Therapeutics (U.S.), Inc., priority 2009, published 2010)
≈ marks a conversion by molar mass, not a printed value. Counter-ions that a name gives are not always drawn. Like-named read-outs stand apart in the source and are kept apart here. Where a SMILES comes first, the peptide text is derived from it. [ ]: non-standard residue; d: D form. d2Nal = N[C@H](Cc1ccc2ccccc2c1)C(=O)O; Aib = CC(C)(N)C(=O)O

Experiment: Solubility as a function of pH / solubility in pure water
Format: physicochemical
Description: The solubility of ipamorelin free base at different pH values is shown graphically in FIG. 1. At pH values less than approximately 10, the drug is very soluble in aqueous media (>100 mg/ml).
This dramatic change in solubility around pH 10 is reflected in the solubilities of ipamorelin free base and its diacetate salt in pure water. The diacetate salt dissolves readily: it is capable of producing solutions greater than 100 mg/ml, with a final pH of about 7.5. The free base is much less soluble; only about 1.5 mg/ml was measured in a saturated solution, pH=9.83. However, solutions of much higher concentration can be achieved by simply adjusting the pH to around neutrality, using a solution of HCl or a similar acid.

Row | solubility (pH 7.5, pure water, final pH of about 7.5, read-out: solubility in pure water) | solubility (aqueous media, pH values less than approximately 10, read-out: solubility in aqueous media) | solubility (pure water, saturated solution, pH=9.83, read-out: solubility in pure water (saturated solution)) | Structure (SMILES)
1 | > 100 mg/mL |  |  | CC(C)(N)C(=O)N[C@@H](Cc1c[nH]cn1)C(=O)N[C@H](Cc1ccc2ccccc2c1)C(=O)N[C@H](Cc1ccccc1)C(=O)N[C@@H](CCCCN)C(N)=O [diacetate salt] (H-[Aib]H[d2Nal][dF]K-NH2)
2 |  | > 100 mg/mL | ~1.5 mg/mL (≈ 2110 µM) | CC(C)(N)C(=O)N[C@@H](Cc1c[nH]cn1)C(=O)N[C@H](Cc1ccc2ccccc2c1)C(=O)N[C@H](Cc1ccccc1)C(=O)N[C@@H](CCCCN)C(N)=O [ipamorelin free base, α-Methylalanine-L-histidine-D-β-(2-naphthyl)-alanine-D-phenylalanine-L-lysinamide] (H-[Aib]H[d2Nal][dF]K-NH2)
